Results from patent US10696686B2, “Herbicidally active (alkynyl-phenyl)-substituted cyclic dione compounds and derivatives thereof” (Syngenta Limited, priority 2013, dated 2020).
Read-outs that look alike come from different tables or passages of the source.

Columns and labels:
Format in all cases: in vivo
[1] = test system: Abutilon theophrasti (ABUTH); assay: Biological Example 1A glasshouse assay, post-emergence application; conditions: 312 h, read-out: Percentage phytotoxicity ABUTH
Summary of the method: (§1)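 Glasshouse spray test: herbicide in acetone/water (50:50) + 0.5% Tween 20, applied pre-emergence (1 d after sowing) or post-emergence (8 d), sandy soil. Injury scored visually, 0–100%, at 13 DAA.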

[2] = test system: Alopecurus myosuroides (ALOMY); assay: as above; conditions: 13 days after application
Summary of the method: as §1

[3] = test system: Amaranthus retroflexus (AMARE); assay: as above; conditions: 312 h, read-out: Percentage phytotoxicity AMARE
Summary of the method: as §1

[4] = test system: Zea mays (ZEAMX, corn, maize, e.g. volunteer corn); assay: as above; conditions: Zea mays, post-emergence, 312 h, read-out: Percentage phytotoxicity ZEAMX
Summary of the method: as §1

[5] = test system: Abutilon theophrasti (ABUTH); assay: Biological Example 1B glasshouse assay, pre-emergence application; conditions: 250 g/ha, 13 days after application
Experimental: (§2) Seeds of a variety of test plant species were sown in standard soil ** in pots. After cultivation for one day (pre-emergence) or after 8 days cultivation (post-emergence) under controlled conditions in a glasshouse (at 24/16° C., day/night; 14 hours light; 65% humidity), the plants were sprayed with an aqueous spray solution derived from the formulation of the technical active ingredient (the test herbicide) in acetone/water (50:50) solution containing 0.5% Tween 20 (polyoxyethylene sorbitan monolaurate, CAS Reg. No. 9005-64-5). The test plants were then grown on under controlled conditions in a glasshouse (at 24/16° C., day/night; 14 hours light; 65% humidity) and watered twice daily. 13 Days after application of the test herbicide, for pre- and post-emergence, the test was evaluated visually for percentage phytotoxicity to each plant (where 100%=total damage to plant; 0%=no damage to plant). Generally, each test herbicide is only tested on 1 plant per plant species for each application rate tested and for each application timing. ** The “standard soil” in Biological Example 1 is usually a “sand” or “sandy loam” type of soil.
(§3) Dicotyledonous weeds: ABUTH=Abutilon theophrasti; AMARE=Amaranthus retroflexus. Grassy monocotyledonous weeds: SETFA=Setaria faberi; ALOMY=Alopecurus myosuroides; ECHCG=Echinochloa crus-galli; ZEAMX=Zea mays (corn, maize, e.g. volunteer corn). For Compound A16, the grassy monocotyledonous weed LOLPE (Lolium perenne) was used in the test insterad of ALOMY.

[6] = test system: Alopecurus myosuroides (ALOMY); assay: as above; conditions: 250 g/ha, 13 days after application
Experimental: as §2, §3

[7] = test system: Amaranthus retroflexus (AMARE); assay: as above; conditions: 250 g/ha, 13 days after application
Experimental: as §2, §3

[8] = test system: Echinochloa crus-galli (ECHCG); assay: as above; conditions: 250 g/ha, 13 days after application
Experimental: as §2, §3

[9] = test system: Setaria faberi (SETFA); assay: as above; conditions: 250 g/ha, 13 days after application
Experimental: as §2, §3

[10] = test system: Zea mays (ZEAMX, corn, maize, e.g. volunteer corn); assay: as above; conditions: 250 g/ha, 13 days after application
Experimental: as §2, §3

[11] = test system: Beta vulgaris (BEAVA, sugarbeet); assay: Biological Example 2 glasshouse assay (IF50 formulation, X-77), post-emergence; conditions: for percentage phytotoxicity score BEAVA: post-emergence, 14 or 15 DAA
Experimental: (§4) Seeds of a variety of monocotyledonous and dicotyledonous test plants are sown in standard soil in pots. The plants are cultivated for one day (for pre-emergence) or for about 12 days (range=10-13 days) (for post-emergence) under controlled conditions in a glasshouse (warm climate species at 24/18° C., cool climate species at 20/16° C., both at day/night; 16 hours light; 65% humidity). An “instant formulation”, known as the “IF50”, containing 50 g/litre (i.e. 5% w/v) of the “technical” (i.e. unformulated) active ingredient is prepared by dissolving the active ingredient in a mixture of organic solvents and emulsifier, details of which are provided in the Table below. This IF50 is then mixed with a small, variable amount of acetone to aid dissolution, before addition of a 0.2% v/v aqueous solution of the adjuvant X-77 (which is a mixture of alkyl aryl polyoxyethylene glycols and free fatty acids in isopropanol, CAS Registry number 11097-66-8), as the aqueous diluent, to form an aqueous spray solution which contains a predetermined concentration of the active ingredient (which varies depending on the application rate of the active ingredient to the plants) and 0.2% v/v of the adjuvant X-77. This aqueous spray solution is then sprayed onto the plants, after one day's cultivation (for pre-emergence) or after about 12 days' cultivation (for post-emergence).
(§5) The test plants are then grown on, in a glasshouse (greenhouse) under controlled conditions (at either 24/18° C. or 20/16° C. (day/night) as mentioned above; 16 hours light; 65% humidity) and are watered twice daily. Either 14 or 15 days after application of the herbicide (14 or 15 DAA) (for post-emergence), or 20 days after application of the herbicide (20 DAA) (for pre-emergence), the test plants are evaluated visually, and an assessed percentage phytotoxicity score is given for each herbicidal application on each plant species (where 100%=total damage to plant; 0%=no damage to plant). Some of the typical test plants are as follows: Cool climate crop plants: Triticum aestivum (TRZAW, winter wheat), Brassica napus (BRSNN, rape, also called oilseed rape or rapeseed), Beta vulgaris (BEAVA, sugarbeet). Warm climate crop plants: Glycine max (GLXMA, soybean). Cool climate (“cool season”) grassy monocotyledonous weeds: Alopecurus myosuroides (ALOMY), Avena fatua (AVEFA), Lolium perenne (LOLPE), Poa annua (POAAN), Bromus tectorum (BROTE). Warm climate (“warm season”) grassy monocotyledonous weeds: Setaria faberi (SETFA), SORVU (Sorghum bicolor (L.) Moench ssp. Bicolor, or Sorghum vulgare Pers.), Digitaria sanguinalis (DIGSA), Echinochloa crus-galli (ECHCG), Brachiaria plantaginea (BRAPL), Zea mays (ZEAMX, corn, maize, e.g. volunteer corn), Panicum miliaceum (PANMI).

[12] = test system: Brachiaria plantaginea (BRAPL); assay: as above; conditions: 14 or 15 DAA
Experimental: as §4, §5

[13] = test system: Echinochloa crus-galli (ECHCG); assay: as above; conditions: 14 or 15 DAA
Experimental: as §4, §5

[14] = test system: SORVU (Sorghum bicolor (L.) Moench ssp. Bicolor, or Sorghum vulgare Pers.); assay: as above; conditions: 14 or 15 DAA
Experimental: as §4, §5

[15] = test system: Triticum aestivum (TRZAW, winter wheat); assay: as above; conditions: for percentage phytotoxicity score TRZAW: 14 or 15 DAA
Experimental: as §4, §5

[16] = 125 g/ha (rate taken from row order)
[17] = 250 g/ha (rate taken from row order)
[18] = 30 g/ha, 13 days after application
[19] = 250 g/ha, 13 days after application

**Q.** `C#CCC1CC(=O)C(c2c(F)cc(C#CC)cc2OC)C1=O` (stereo not shown) [Compound A8, 2-(2-fluoro-6-methoxy-4-prop-1-ynyl-phenyl)-4-prop-2-ynyl-cyclopentane-1,3-dione] was tested. Which pest or weed control at 30 g/ha [1] did it give?
**A.** Its pest or weed control at 30 g/ha is 0%.

**Q.** And the pest or weed control at 250 g/ha [1]?
**A.** The pest or weed control at 250 g/ha was 70%.

**Q.** What about the “Percentage phytotoxicity ALOMY” value ([2]; 30 g/ha) of the same compound?
**A.** Its value is 70%.

**Q.** And the “Percentage phytotoxicity ALOMY” value ([2]; 250 g/ha)?
**A.** Its value is 90%.

**Q.** And the pest or weed control at 30 g/ha [3]?
**A.** Its pest or weed control at 30 g/ha is 0%.

**Q.** What about the pest or weed control at 250 g/ha [3] of the same compound?
**A.** Its pest or weed control at 250 g/ha is 0%.

**Q.** And the pest or weed control at 30 g/ha [4]?
**A.** Its pest or weed control at 30 g/ha is 100%.

**Q.** What about the pest or weed control at 250 g/ha [4] of the same compound?
**A.** The pest or weed control at 250 g/ha was 100%.

**Q.** What about the “Percentage phytotoxicity ABUTH” value [5] of the same compound?
**A.** Its value is 0%.

**Q.** What about the “Percentage phytotoxicity ALOMY” value [6] of the same compound?
**A.** Its value is 90%.

**Q.** And the “Percentage phytotoxicity AMARE” value [7]?
**A.** Its value is 0%.

**Q.** And the “Percentage phytotoxicity ECHCG” value [8]?
**A.** Its value is 100%.

**Q.** What about the “Percentage phytotoxicity SETFA” value [9] of the same compound?
**A.** Its value is 90%.

**Q.** And the “Percentage phytotoxicity ZEAMX” value [10]?
**A.** The value was 100%.

**Q.** What about the “phytotoxicity against sugarbeet (in words)” value ([11]; e.g. when applied at 30 g/ha post-emergence, see Biological Example 2) of the same compound?
**A.** Its value is “low or reasonably low phytotoxicity”.

**Q.** What about the “percentage phytotoxicity score BEAVA” value ([11]; 125 g/ha) of the same compound?
**A.** Its value is 10%.

**Q.** And the “percentage phytotoxicity score BEAVA” value ([11]; 250 g/ha)?
**A.** The value was 10%.

**Q.** And the “percentage phytotoxicity score BRAPL” value [12, 16]?
**A.** Its value is 100%.

**Q.** And the “percentage phytotoxicity score BRAPL” value [12, 17]?
**A.** Its value is 100%.

**Q.** What about the “percentage phytotoxicity score ECHCG” value [13, 16] of the same compound?
**A.** The value was 100%.

**Q.** And the “percentage phytotoxicity score ECHCG” value [13, 17]?
**A.** The value was 100%.

**Q.** And the “percentage phytotoxicity score SORVU” value [14, 16]?
**A.** The value was 100%.

**Q.** And the “percentage phytotoxicity score SORVU” value [14, 17]?
**A.** Its value is 100%.

**Q.** And the “percentage phytotoxicity score TRZAW” value ([15]; 125 g/ha)?
**A.** The value was 50%.

**Q.** And the “percentage phytotoxicity score TRZAW” value ([15]; 250 g/ha)?
**A.** Its value is 70%.

**Q.** What about the “phytotoxicity against wheat (in words)” value ([15]; relative to herbicidal activity against warm-climate grassy weeds, Biological Example 2) of the same compound?
**A.** Its value is “medium or reasonably low phytotoxicity”.

**Q.** Which pest or weed control at 30 g/ha [1, 18] does the source give for `CC#Cc1cc(F)c(C2C(=O)CC(CCSC)CC2=O)c(OC)c1` (stereo not shown) [Compound A11] here?
**A.** The pest or weed control at 30 g/ha was 0%.

**Q.** And the pest or weed control at 250 g/ha [1, 19]?
**A.** The pest or weed control at 250 g/ha was 10%.

**Q.** What about the “Percentage phytotoxicity ALOMY” value ([2]; 30 g/ha) of the same compound?
**A.** The value was 0%.

**Q.** And the “Percentage phytotoxicity ALOMY” value ([2]; 250 g/ha)?
**A.** Its value is 10%.

**Q.** What about the pest or weed control at 30 g/ha [3, 18] of the same compound?
**A.** Its pest or weed control at 30 g/ha is 30%.

**Q.** What about the pest or weed control at 250 g/ha [3, 19] of the same compound?
**A.** Its pest or weed control at 250 g/ha is 50%.

**Q.** What about the pest or weed control at 30 g/ha [4, 18] of the same compound?
**A.** Its pest or weed control at 30 g/ha is 20%.

**Q.** What about the pest or weed control at 250 g/ha [4, 19] of the same compound?
**A.** Its pest or weed control at 250 g/ha is 20%.
